Experimental data reported in patent US8557517B2, “Toll like receptor 4 dysfunction and the biological applications thereof” (Institut Gustave Roussy, priority 2006, dated 2013).

Assays:
[1] = system: CT26 colon cancer tumour cells; test: Prophylactic vaccine of drug-treated apoptotic CT26 cells followed by live CT26 challenge; assay type: in vivo, mice; settings: for outgrowth of tumours after live CT26 challenge: vaccine of CT26 cells treated with the compound, immunocompetent versus Nude mice
Experimental: FIG. 1: Immunogenicity of apoptosis. • A. Drugs inducing apoptotic cell death in vitro. Various (FDA-approved or not) drugs were incubated on CT26 tumour cells. Flow cytometry analyses were performed on CT26 at 24 hrs after labeling with DAPI and annexin V. The percentages of double positive cells is in black, of annexin V+/DAPI− is in white bars. • B. Prophylactic vaccines composed of drug-induced apoptotic cells in wild type mice. 3×10^6 CT26 cells treated for 24 hrs with various drugs in vitro were inoculated in the left flank of BALB/c WT at day 0. Controls were PBS treated. At day 7, 5×10^5 live CT26 were injected in the right flank and tumour growth was monitored twice a week using a calliper. The percentages of tumour free mice are indicated. […] .
Identical experimental setting as in 1B. but performed in TLR4−/− mice instead of BALB/c WT. • C. DOX is directly inoculated into established tumours in WT or TLR4−/− mice. The direct antitumour effect is monitored by measuring tumour sizes biweekly.
3×10^6 treated CT26 cells were inoculated subcutaneously in 200 μl PBS into 6-wk-old female BALB/c mice (Charles River Laboratories) into the lower flank, whereas 5×10^5 untreated control cells were inoculated into the contralateral flank. Similarly, 1×10^5 TS/A cells were inoculated into the right flank of mice.
For in vivo experiments, 100 μg of peptides were administered i.p. into mice at day 0, day +3 and day +6 after immunization with CT26 apoptotic cells.
CT26 cells were cultured in culture medium supplemented with 20 μM of doxoxorubin for 4-24 h. Alternatively, B16OVA cells were treated with 1 μM idarubicin for 24 h (Aventis) to induce cell death.
It has been recently reported that anthracycline-induced apoptosis promoted the immunogenicity of tumour cells in a caspase-dependent manner. Therefore, inventors carried out a screening of several FDA-approved compounds commonly used in current protocols of chemotherapy which are capable of i) inducing apoptosis of tumour cells in vitro (including X-Rays) (FIG. 1A) and ii) inducing protective T cell immune responses against live tumour cells in vivo. The experimental setting was the following. CT26 colon cancer tumour cells were subjected to a 4-18 hr incubation with a cytotoxic compounds, washed and inoculated sc in BALC/c syngeneic mice in the abdominal flank. Fifteen days later, mice were challenged with 10 times the minimal tumourigenic dose of live CT26 tumour cells on the controlateral flank and the kinetics of tumour growth was monitored. […] .

mutant TLR4 receptor = test: NF-κB activation in response to HMGB1 in TLR4-transfected Hela cells; assay type: cell-based, human; settings: Hela cells transfected with mutant TLR4
tumour = test: Antitumour effects of cytotoxic agents in immunocompetent versus immunocompromised mice; settings: mouse, in vivo
TS/A mammary tumour = test: Local X-ray therapy of TS/A tumours with TLR ligands or TLR7/9 inhibitors; settings: for responsiveness to X-Rays in TLR4−/− mice: ligand 50 μg i.p. with local radiotherapy 10 Gy; for natural tumour progression: ligand 50 μg i.p., no radiotherapy
[2] = system: WT or TLR4−/− mouse BM-DC; test: Antigen presentation by BM-DC loaded with irradiated EG7 cells to B3Z hybridoma (IL-2); assay type: cell-based
Experimental: TLR4 and MyD88 are required for antigen presentation by DC loaded with irradiated tumor cells to MHC class I (H-2^b)-restricted T cells. DC from the indicated genotype (background C57Bl/6, H-2^b I-A^b) were pulsed with SIINFEKL peptide, live or irradiated EG7 cells (ratio of EG7 to DC 1:1) and incubated with the SIINFEKL-specific B3Z hybridoma for 48 h, followed by quantification of IL-2 in the supernatant (see §12 of experimental section).

[3] = Subtoxic concentrations of lysosome alkalinizing agents; assay type: cell-based; settings: in the mouse
Excerpt: TLR4 has been reported to inhibit the lysosome-dependent degradation of phagosomes. TLR4^−/− DC would degrade dying cells in the lysosomal compartment instead of presenting their antigens. In the present invention, inventors sought to restore antigen presentation by TLR4^−/− DC by inhibiting the activity of lysosomes, either with chloroquine (a lysosomotropic alkaline product) or with bafilomycin A1 (a specific inhibitor of the vacuolar ATPase responsible for lysosomal acidification). […] Next, inventors directly determined the kinetics of fusion between phagosomes and lysosomes in WT versus TLR4^−/− DC loaded with dying tumour cells.

TLR7/9 signaling = test: Efficacy of TLR7/9 inhibitory ODN: serum cytokines after CpG injection; design: species or system mice; settings: in vivo

Compound: CO[C@@]12[C@H](COC(N)=O)C3=C(C(=O)C(C)=C(N)C3=O)N1C[C@@H]1N[C@@H]12 [mitomycin-C]
- outgrowth of tumours after live CT26 challenge [1]: as efficient in immunocompetent as in Nude mice

Compound: HMGB1: high molecular weight box 1 HMGB1/amphoterin, TLR4 ligand
- NF-κB activation in response to HMGB1 (mutant TLR4 receptor): blunted the NF-κB activation in response to HMGB1

Compound: RKKRRQRRRGKKYSRGESIYDAFVI-YSSQNEDWV (RKKRRQRRRGKKYSRGESIYDAFVIYSSQNEDWV; inhibitory peptide) [TLR4 peptide]
- anti-tumour immunity of vaccination under TLR4 blocking peptide ([1]; wild type mice, 100 μg peptide i.p., listed as cell-permeable blocking peptide): prevented anti-tumour immunity

Compound: CC(=O)O[C@H]1C(=O)[C@@]2(C)[C@H]([C@H](OC(=O)c3ccccc3)[C@]3(O)C[C@H](OC(=O)[C@H](O)[C@@H](NC(=O)c4ccccc4)c4ccccc4)C(C)=C1C3(C)C)[C@]1(OC(C)=O)CO[C@@H]1C[C@@H]2O [paclitaxel]
- antitumour efficacy in immunocompetent versus immunodeficient mice (tumour): equally efficient in immunocompetent and immunodeficient mice

Compound: CC(=O)[C@]1(O)Cc2c(O)c3c(c(O)c2[C@@H](O[C@H]2C[C@H](N)[C@H](O)[C@H](C)O2)C1)C(=O)c1ccccc1C3=O [Idarubicin]
- outgrowth of tumours after live CT26 challenge [1]: could prevent the outgrowth of tumours in immunocompetent but not Nude littermates

Compound: Polyinosine-polycytidylic acid [Poly I:C]
- responsiveness to X-Rays in TLR4−/− mice (TS/A mammary tumour): circumvented TLR4 deficiency in TS/A bearing-animals
- natural tumour progression (TS/A mammary tumour): did not significantly hamper natural tumour progression

Compound: CO/C1=C\C(C)=C\[C@@H](C)[C@@H](O)[C@@H](C)C/C(C)=C/C=C/[C@H](OC)[C@@H]([C@@H](C)[C@@H](O)[C@H](C)[C@@]2(O)C[C@@H](O)[C@H](C)[C@@H](C(C)C)O2)OC1=O [bafilomycin A1]
- capacity of DC to present antigen from dying cells ([2]; TLR4−/− DC): enhanced the capacity of TLR4^−/− DC to present antigen from dying cells
- antigen presentation from dying cells ([2]; WT DC): did not ameliorate antigen presentation by WT DC
- subtoxic concentrations [3]: 20 to 30 µM

Compound: 5′-TGCTCCTGGAGGGGTTGT-3′ (listed as DNA, chemistry not given here) [IRS 954]
- serum levels of IL-12p40 following CpG inoculation (TLR7/9 signaling): significantly decrease
- serum levels of TNFα following CpG inoculation (TLR7/9 signaling): significantly decrease
- efficacy of radiotherapy under TLR7 and 9 inhibition (TS/A mammary tumour; inhibitory ODN 50 μg i.p.): failed to influence the efficacy of radiotherapy

Compound: 5′-TCCATGACGTTCCTGACGTT-3′ [CpG ODN]
- responsiveness to X-Rays in TLR4−/− mice (TS/A mammary tumour): restored the efficacy of X-Rays in TLR4^−/− mice
- natural tumour progression (TS/A mammary tumour): exerted some antitumour activity during tumour progression in mice

Compound: CC[C@@]1(O)C(=O)OCc2c1cc1n(c2=O)Cc2cc3ccccc3nc2-1 [camptothecin]
- antitumour efficacy in immunocompetent versus immunodeficient mice (tumour): equally efficient in immunocompetent and immunodeficient mice
